Data reported in patent US11813239B2, “Compositions and methods for improving cardiac structure and/or function” (Wisconsin Alumni Research Foundation, priority 2020, dated 2023).
“Also recorded” adds a separate entry of the source.

System: adult cardiomyocytes
Test: Histology after adult MI (TTC, TUNEL, pH3, Aurora B, BrdU, nucleation, γH2AX, trichrome, WGA, coronary casting, PECAM/α-SMA)
Type: in vivo, mouse
[1] = dimethyl malonate 100 mg/kg daily for 2 weeks, 28 days post-MI
[2] = dimethyl malonate 100 mg/kg daily for 2 weeks, 28 days post-MI, vs controls
[3] = dimethyl malonate 100 mg/kg daily, 14 days post-MI

COC(=O)CC(=O)OC [Malonate, dimethyl malonate]
fibrosis (trichrome staining, quantification) (dimethyl malonate 100 mg/kg daily for 2 weeks, 14 days post-MI, vs controls, difference was not significant): trend for reduction in fibrosis
capillary density and vascular smooth muscle cells in the infarct zone (PECAM, α-SMA) [1]: significant increase in capillary density and vascular smooth muscle cells
scar size (quantification of fibrosis) [1]: significant reduction of scar size
cardiomyocyte size (WGA staining) [2]: significant reduction in cardiomyocyte size
coronary artery formation / revascularization of the infarct zone (coronary casting) [2]: Re-vascularization in the infarcted zone was also induced; also recorded: remarkable formation of coronary arteries below the ligature site
heart weight to body weight ratios (dimethyl malonate 100 mg/kg daily for 2 weeks, 28 days post-MI, vs saline): No significant differences
cardiac structure (trichrome staining) (dimethyl malonate 100 mg/kg daily for 2 weeks, 28 days post-MI, vs saline controls): complete restoration of the myocardium with minimal fibrosis; also recorded: remarkable restoration of the myocardium with minimal fibrosis
number of apoptotic cardiomyocytes (TUNEL staining) (dimethyl malonate 100 mg/kg daily, 3- or 7-days post-MI, vs saline): no difference in the number of apoptotic cardiomyocytes
BrdU incorporation in cardiomyocytes [3]: significant increase in 5-bromodeoxyuridine (BrdU) incorporation
number of binucleated cardiomyocytes [3]: significant decrease in the number of binucleated cardiomyocytes
number of mononucleated cardiomyocytes [3]: remarkable increase in the number of mononucleated cardiomyocytes
cardiomyocytes with γH2AX foci (DNA damage) (dimethyl malonate 100 mg/kg daily, vs controls): significant decrease in the number of cardiomyocytes with γH2AX foci
non-viable myocardium, myocardial necrosis (TTC viability stain) (dimethyl malonate 100 mg/kg from within an hour post-MI, daily, 3 days post-MI, vs saline): no significant difference
gross morphology of the heart (dimethyl malonate 100 mg/kg intraperitoneally for two weeks, 28 days post-MI, vs controls): more muscularized ventricle
vascular density in the infarct zone (MICROFIL casting, ImageJ region of interest) (malonate, 28 days post-MI, vs controls): significant increase in vascular density in the infarct zone
